Source: patent US8420132B2, “Synergistic anti-inflammatory and antioxidant dietary supplement compositions” (Laila Impex, priority 2007, dated 2013)

Key:
5-LOX = target: T1, 5-LOX (Homo sapiens, UniProt P09917); settings: of all the six boswellic acids; cited from earlier work
T1 sequence (P09917 1-674): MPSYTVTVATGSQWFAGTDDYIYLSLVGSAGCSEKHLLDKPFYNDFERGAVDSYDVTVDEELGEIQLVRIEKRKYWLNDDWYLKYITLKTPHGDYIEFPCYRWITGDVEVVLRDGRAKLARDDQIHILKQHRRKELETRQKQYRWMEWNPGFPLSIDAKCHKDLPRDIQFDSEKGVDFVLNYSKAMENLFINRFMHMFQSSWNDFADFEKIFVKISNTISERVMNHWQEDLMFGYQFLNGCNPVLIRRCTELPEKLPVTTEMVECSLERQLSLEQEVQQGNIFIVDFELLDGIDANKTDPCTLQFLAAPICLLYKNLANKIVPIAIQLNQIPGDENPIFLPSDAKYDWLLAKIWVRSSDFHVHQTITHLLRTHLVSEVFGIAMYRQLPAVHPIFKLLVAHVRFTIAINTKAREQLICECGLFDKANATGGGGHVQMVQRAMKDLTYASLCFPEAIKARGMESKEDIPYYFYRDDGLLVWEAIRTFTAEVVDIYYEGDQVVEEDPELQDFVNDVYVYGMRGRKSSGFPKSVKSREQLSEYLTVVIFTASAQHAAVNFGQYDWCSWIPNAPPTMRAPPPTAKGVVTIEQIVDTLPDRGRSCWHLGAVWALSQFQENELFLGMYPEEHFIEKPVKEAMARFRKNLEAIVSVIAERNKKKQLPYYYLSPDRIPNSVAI

[1] = system: Freund's Complete Adjuvant (FCA) challenged rats; assay: Freund's Complete Adjuvant induced inflammation (paw volume) in rats; type: in vivo; settings: 50 mg/kg daily in 1% CMC for 28 days, FCA on day 14, paw volumes at 28th day
Protocol: Test animals (rats, 200-300 g) of either sex were randomly distributed into different groups, with 5 animals in each group. Rats were supplemented daily with either demethylated curcuminoids (50 mg/kg) or enriched AKBA extract (50 mg/kg) or glucosamine (50 mg/kg), or reseveratrol (50 mg/kg), garlic extract (50 mg/kg) or ginger extract (50 mg/kg), or composition 7 (50 mg/kg) in 1% CMC for 28 days. The control group received same volume of vehicle (1% CMC); a standard drug, Prednisolone (10 mg/kg, orally) was used in the control treatment group. On the day 14, 100 μl of Freund's Complete Adjuvant (FCA) was injected subcutaneously in the sub planter region of the left hind paw. Blood samples were collected from each animal on the previous day of FCA challenge and at the day of termination of experiment i.e. 14 days after challenge. At the 28th day paw volumes were measured and after sacrificing the animals, liver tissues were excised and stored at −80° C. until further use.

| Compound | inhibitory activity against 5-LOX (in words) (5-LOX) | percent of inhibitions [1] |
| --- | --- | --- |
| CC(=O)O[C@H]1CC[C@@]2(C)C(CC[C@]3(C)C2C(=O)C=C2C4[C@@H](C)[C@@H](C)CC[C@]4(C)CC[C@@]23C)[C@]1(C)C(=O)O (stereo partly drawn) [AKBA, 3-O-acetyl-11-keto-β-boswellic acid] | most pronounced inhibitory activity |  |
| N[C@H]1C(O)O[C@H](CO)[C@@H](O)[C@@H]1O (stereo partly drawn) [Glucosamine, glucosamine] |  | 5.5% |
| Oc1ccc(/C=C/c2cc(O)cc(O)c2)cc1 [Reseveratrol, reseveratrol] |  | 20.5% |
